From patent publication US20050009865A1, “Quinoline derivative as diagnostic probe for disease with tau protein accumulation” (priority 2002, published 2005)
“Also recorded” adds a separate entry of the source.

Columns and labels:
[1] = Testing of acute toxicity, intravenous administration; conditions: male, Crj:CD1, mouse, in vivo, mice, observed up to 7 days, read-out: Maximum Tolerated Dose
Protocol: Acute toxicity of the inventive compounds was determined employing mice by intravenous administration. Male Crj:CD1 mice were used and divided into groups of 4 mice, with an average weight of each group of 30-34 g. Each compound was dissolved in saline, 1N HCl, or a mixture of 1N HCl/polyethylene glycol 400, and then diluted with distilled water for injection, and administered via tail vein. Up to 7 days after administration, observations were made.

[2] = Testing of blood-brain barrier permeability; assay type: in vivo; conditions: mice, two minutes after intravenous administration
Protocol: Compounds of the present invention were intravenously administered to mice to determine their in vivo blood-brain barrier permeability. • (1) Mice utilized S1c:ICR weighing 30-40 g (7 weeks old, n=3) (Nippon SLC). • (2) A test compound was dissolved in 1N HCl, and then diluted with purified water, and injected via tail vein. Two minutes after administration, the mice, under ether anesthesia, were subjected to taking blood from the abdominal aorta with a heparin-treated syringe and removing the brain. • (3) After taking blood, blood samples were centrifuged at 14,000 rpm at 4° C. for 10 minutes, and their supernatants were kept at −80° C. as plasma sample. The brain (including cerebellum) was kept at −80° C. after its removal. • (4) The plasma sample, when used, was thawed, diluted with purified water, and then applied to a conditioned C18 solid-phase extraction cartridge (bond elute C18, 200 mg, Lot. 070864, Varian), followed by elution with methyl alcohol. • (5) The brain material, when used, were subjected to measuring its wet weight with the brain remaining frozen, and saline was added for homogenization. The homogenate was centrifuged for 10 minutes, and the supernatant was applied to a conditioned C18 solid-phase extraction cartridge and eluted with methyl alcohol. • (6) The test compound was detected at its maximum absorbance (a UV/VIS detector, Waters) and fluorescence (an FS-8020 fluorometer, Tosoh) employing high performance liquid chromatography. • (7) For each of the plasma and brain, the content of the test compound in the plasma or brain (%ID (injected dose)/ml or g) was determined, relative to the administered-dose.

[3] = test system: neurofibrillary tangles (or phosphorylated tau protein); test: Staining of neurofibrillary tangles in brain sections of a patient with Alzheimer's disease (screening method); assay type: binding, human; conditions: for staining of neurofibrillary tangles (or phosphorylated tau protein): brain/hippocampus sections of Alzheimer's disease patient, 100 μM compound in 50% ethanol, fluorescence microscopy, compared with thioflavin S on adjacent section
Excerpt: (§1) The following explanation is made about a method for screening the inventive compounds. • (1) Temporal lobe or hippocampus specimens of the brain of a patient who had been definitely diagnosed pathologically as Alzheimer's disease and of a normal aged individual were used. These specimens were provided from Fukushimura Hospital, our joint research facility, with the consent to their use for research purpose received from the bereaved family of the patient (BF Research Laboratories Institutional Ethics Board Permission No. RS-99-02). • (2) The brain tissues embedded in paraffin were sliced 6 or 8 μm thick, extended on slides, and dried. The paraffin-embedded brain sections were deparaffined by washing sequentially with xylene (10 minutes, twice), 100% ethanol (5 minutes, twice), 95% ethanol (5 minutes, twice), and a stream of water (10 minutes). • (3) Pre-treatment for staining with compounds of the present invention involved treating the sections for eliminating self-fluorescence due to lipofuscin. First, the deparaffined sections were immersed into a 10% formalin solution for 60 minutes and washed with PBS (phosphate-buffered saline) for 5 minutes, followed by immersion into a 0.25% solution of KMnO4 for 90 minutes. After washing twice with PBS for 2 minutes each, the sections were immersed into a solution of 0.1% K2S2O5/oxalic acid for about 30 seconds each, and then washed three times with PBS for 2 minutes each. • (4) About 150 μl of a 100 μM solution of a compound of the present invention dissolved in 50% ethanol was added dropwise onto the sections and allowed the reaction to be carried out for 10 minutes. The sections were dipped into tap water five times, and then 50% ethanol three to five times, followed by immediate classification. After that, the sections were immersed into PBS for 60 minutes, enclosed with Fluor Save Reagent (Calbiochem), and examined under UV-B excitation using a fluorescent microscope (Nikon, Eclips E800). Pictures were taken using a digital camera (Plaroid [sic] PDMCII).
Immunostaining was carried out as follows: • (1) After the sections were deparaffined, the sections were washed twice with distilled water for 2 minutes each, tissues were marked with an Immunopen. About 150 μl of 3% hydrogen peroxide (diluted in methanol) was added dropwise and allowed to stand at room temperature for 10 minutes. • (2) The sections were-washed twice with cold PBS-Tween 20 for 5 minutes each, and two drops of blocking serum were added and allowed the reaction to be carried out at 37° C. for 30 minutes. Excess water was removed, and two drops of pSer422, an antibody specific to phosphorylated tau (Wako Phosphorylated Tau Immunohistostain Kit 299-57301) and allowed the reaction to be carried out overnight at 4° C. • (3) On the next day, the sections were washed five times with cold PBS-Tween 20 for 2 minutes each, and two drops of a solution of goat anti-rabbit IgG conjugated to biotin were added and allowed the reaction to be carried out at 37° C. for 1 hour. […]

[4] = target: T1, Aβ1-40 taking β-sheet structures (Homo sapiens, UniProt P05067); test: Binding to amyloid β-protein on slides; conditions: Aβ1-40 on slides; 1 μM solution of test chemical
T1 construct: Aβ1-40 (Peptide Institute, Inc., Lot No. 520311, MW: 4329.8); purchased Peptide Institute, Inc. Lot No. 520311
T1 sequence (P05067 672-711 limits assumed): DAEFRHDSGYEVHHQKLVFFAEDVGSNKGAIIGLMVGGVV
Protocol: Properties of binding to amyloid β-protein were examined as follows: • (1) Aβ1-40 (Peptide Institute, Inc., Lot No. 520311, MW: 4329.8) was dissolved in 50 mM potassium phosphate buffer (pH 7.4) at a concentration of 500 μM, and incubated at 37° C. for 3 days or longer, thereby making the protein take β-sheet structures. • (2) After incubation, the Aβ solution was vortexed and diluted to 50 μM for use. • (3) 20 μl of the Aβ1-40 solution was dropped onto a poly-L-lysine-coated slide (MICRO SLIDE GLASS S7441, […]) and dried on an extender (Sakura PS-C2) at about 45° C. • (4) The Aβ1-40 on the slide was covered with 20 μl of 1 μM solution of a chemical to be tested, allowed to stand at room temperature for about 10 minutes, and then washed with a stream of water (tap water), followed by examination under a microscope.

[5] = test system: senile plaques; test: Staining of senile plaques in hippocampus sections of the brain of a patient with Alzheimer's disease; assay type: binding, human; conditions: compared with thioflavin S on adjacent section
Excerpt: as §1

Compound | MTD at 7 days [1] | Brain content (blood-brain barrier permeability) [2] | Plasma content [2] | staining of neurofibrillary tangles (or phosphorylated tau protein) [3] | staining of phosphorylated tau protein recognized by pSer422 antibody ([3]; hippocampus sections of Alzheimer's disease patient, adjacent section immunostained with pSer422) | binding to Aβ1-40 taking β-sheet structures (fluorescence) [4] | staining of senile plaques [5]
CNc1ccc(-c2ccc3ccccc3n2)cc1 [BF-158, 2-(4-(methylamino)phenyl)quinoline] | ≥ 10 mg/kg | 9.7 % ID/g or ml | 1.8 % ID/g or ml | – | – | – | –
Nc1ccc(-c2ccc3ccccc3n2)cc1 [BF-170, 2-(4-(amino)phenyl)quinoline] | ≥ 10 mg/kg | 9.1 % ID/g or ml | 1.4 % ID/g or ml | stained only neurofibrillary tangles (or phosphorylated tau protein) | stained phosphorylated tau protein which was recognized by pSer422 | hardly bound to this Aβ1-40 (fluorescence was not observed); also recorded: hardly bound to the Aβ1-40 protein (fluorescence was not observed) | stained only neurofibrillary tangles (or phosphorylated tau protein)
CN(C)c1ccc(-c2ccc3ccccc3n2)cc1 [Compound N-310, 2-(4-(dimethylamino)phenyl)quinoline] | – | 15.0 % ID/g or ml | 1.0 % ID/g or ml | stained neurofibrillary tangles (or phosphorylated tau protein) | – | – | –
CCN(CC)c1ccc(-c2ccc3ccccc3n2)cc1 [Compound N-313, 2-(4-(diethylamino)phenyl)quinoline] | ≥ 10 mg/kg | 4.6 % ID/g or ml | 1.1 % ID/g or ml | stained neurofibrillary tangles (or phosphorylated tau protein) | – | – | –
Cc1ccc2ccc(-c3ccc(N(C)C)cc3)nc2c1 [SA-820, 2-(4-(dimethylamino)phenyl)-7-methylquinoline] | – | – | – | – | – | – | stained senile plaques (wedge-shaped arrowheads) with a clearly weaker degree than that of thioflavin S; also recorded: stained senile plaques (wedge-shaped arrowheads) with a clearly-weaker degree than that of thioflavin S
CN(C)c1ccc(-c2ccc3c(ccc4ccccc43)n2)cc1 [SA-821, 3-(4-(dimethylamino)phenyl)benzo(f)quinoline] | – | – | – | – | – | – | stained senile plaques (wedge-shaped arrowheads) with a clearly weaker degree than that of thioflavin S
Cc1ccc2c(c1)sc(-c1ccc(N(C)C)cc1)[n+]2C.[Cl-] [thioflavin T, reference compound] | – | – | – | – | – | significant binding to this Aβ1-40; also recorded: significant binding to the Aβ1-40 protein | –
thioflavin S [reference compound] | – | – | – | stained both senile plaques (wedge-shaped arrowheads) and neurofibrillary tangles (or phosphorylated tau protein); also recorded: stained both senile plaques and neurofibrillary tangles | – | – | stained both senile plaques (wedge-shaped arrowheads) and neurofibrillary tangles (or phosphorylated tau protein); also recorded: stained both senile plaques and neurofibrillary tangles
